Source: PubChem BioAssay AID2060513 (Molecular Pharmacology Branch, DTP, NCI, 2025)
pIC50: −log10 of the molar value.

System: 299254-011-R-J1-PDC complex spheroids viability
Experiment: Anticancer human tumor 299254-011-R-J1-PDC patient-derived melanoma cell line growth inhibition [GQUAD]
Details: for pIC50: curve of first compound; for viability, T/C: stronger effect = lower value
Excerpt: DNA G-quadruplex Stabilizer Agents in Combinations in Complex Spheroids
A high-throughput screen of multi-cell type tumor spheroids was designed to identify active combinations of DNA G-quadruplex stabilizer agents and targeted small molecules. Complex spheroids include a stromal component modeled by human endothelial cells (HUVEC) and fibroblasts modeled by human mesenchymal stem cells (MSCs). The concentration ranges selected for each drug and investigational agent were based upon clinically achievable concentrations if the clinical Cmax of the agent was known.
Compounds. The drugs and investigational agents: pidnarulex (CX-5461; NSC782164), APTO-253 (NSC789042), BRACO-19 (NSC847499), peposertib (NSC802822), ceralasertib (NSC780249), elimusertib (NSC800525), camonsertib (NSC841442), AZD-1390 (NSC803789), olaparib (NSC753686), talazoparib (NSC767125), ART-558 (NSC835418), sotorasib (NSC818433), MRTX-1133 (NSC836407), SN-38 (NSC673596), topotecan (NSC609699), etoposide (NSC141540), doxorubicin (NSC123127), gemcitabine (NSC613327), 5-fluorouracil (NSC19893), paclitaxel (NSC125973), vemurafenib (NSC761431), panobinostat (NSC761190), R-306465 (JNJ-16241199; NSC773264), adavosertib (NSC754352), TP-3654 (NSC805149), carboplatin (NSC241240), KSQ-4279 (NSC840948), and staurosporine (NSC755774) were obtained from the National Cancer Institute (NCI) Developmental Therapeutics Program Chemical Repository (34). The FDA-approved anticancer drug set is available from the NCI Developmental Therapeutics Program. […] The stock solutions were prepared in dimethyl sulfoxide (DMSO, Sigma-Aldrich, St. Louis, MO, cat. D2650) at 800-fold the tested concentration and stored at -70 degrees C prior to their use. All drugs and investigational agents were tested over a range starting from a high concentration at or near the clinical Cmax and decreasing in half-log increments. If the clinical Cmax for an agent had not been determined, the highest concentration tested was 10 microM.
2.3 Cell Culture. All cells were maintained in an incubator at 37 degrees C and 5% CO2 with 95% humidity. The PDC lines were cultured according to standard operating procedures established by the NCI PDMR. All PDCs were thawed and cultured in Matrigel-coated flasks prepared with a working solution of 1X Ham's F-12 nutrient mix, without supplementation (Invitrogen, cat. 11765054), 100 U/mL penicillin-streptomycin (Invitrogen, cat. 15140122), and 2.5% Matrigel (Corning Inc., cat. 354248) for the first three passages. The 857933-349-R-J2-PDC line was cultured in 6C/Colon 1B media, which includes advanced DMEM/F-12 (Thermo Fisher Scientific, cat. 12634028), 10 mM HEPES (Thermo Fisher Scientific, cat. 15630080), 1X GlutaMAX supplement (Thermo Fisher Scientific, cat. 35050061), 0.1 mg/mL primocin (InvivoGen, cat. ant-pm-2), 10% defined fetal bovine serum, heat inactivated (HyClone Laboratories Inc., cat. SH30070.03HI), 50% L-WRN conditioned media (ATCC, cat. CRL-3276), 1.25 mM N-Acetyl-L-cysteine (Sigma-Aldrich, cat. A9165), 10 mM nicotinamide (Sigma-Aldrich, cat. N0636), 1X B-27 supplement (Thermo Fisher Scientific, cat. 17504044), 1X N-2 supplement (Thermo Fisher Scientific, cat. 17502048), 10 microM Y-27632 dihydrochloride (Tocris Bioscience, cat. 1254), and 50 ng/mL human EGF recombinant protein (Thermo Fisher Scientific, cat. PHG0311). The 485176-168-R4-J1-PDC line was cultured in Panc media, which includes all 6C/Colon 1B media components plus 100 ng/mL human FGF-10 (Thermo Fisher Scientific, cat. 100-26), 500 nM SB-431542 (Selleckchem, cat. S1067), and gastrin (Tocris, cat. 3006).
[…]

[1] = second compound 0.0316 µM, first compound 0.0316 µM
[2] = second compound 0.0316 µM, first compound 0.316 µM
[3] = second compound 0.1 µM, first compound 0.0316 µM
[4] = second compound 0.1 µM, first compound 0.316 µM
[5] = second compound 0.316 µM, first compound 0.0316 µM
[6] = second compound 0.316 µM, first compound 0.316 µM
[7] = second compound 1 µM, first compound 0.0316 µM
[8] = second compound 1 µM, first compound 0.316 µM
[9] = second compound 3.16 µM, first compound 0.0316 µM
[10] = second compound 3.16 µM, first compound 0.316 µM
[11] = second compound 10 µM, first compound 0.0316 µM
[12] = second compound 10 µM, first compound 0.316 µM
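Note: spheroids exposed to the agents for seven days before readout.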
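Throughout, for viability, T/C: percent viability relative to DMSO vehicle control wells = 100%.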

`CCc1c2c(nc3ccc(O)cc13)-c1cc3c(c(=O)n1C2)COC(=O)[C@]3(O)CC` + CN(C)c1ccc(Nc2c3ccc(NC(=O)CCN4CCCC4)cc3nc3cc(NC(=O)CCN4CCCC4)ccc23)cc1 was tested, and the pIC50 (second compound 0.0316 µM) was under 6.50, the pIC50 (second compound 0.1 µM) was under 6.50 and the pIC50 (second compound 0.316 µM) was under 6.50. For the same molecule, the pIC50 (second compound 1 µM) was under 6.50, the pIC50 (second compound 3.16 µM) was under 6.50 and the pIC50 (second compound 10 µM) was under 6.50. For the same molecule, the viability, T/C (second compound 0.0316 µM, first compound 0.000999 µM) was 89.2%, the viability, T/C (second compound 0.0316 µM, first compound 0.00316 µM) was 110% and the viability, T/C (second compound 0.0316 µM, first compound 0.00999 µM) was 89.4%. It also gave a viability, T/C [1] of 94.9%, a viability, T/C (second compound 0.0316 µM, first compound 0.0999 µM) of 90.8% and a viability, T/C [2] of 98%. The viability, T/C (second compound 0.1 µM, first compound 0.000999 µM) was 112%, the viability, T/C (second compound 0.1 µM, first compound 0.00316 µM) was 98.5% and the viability, T/C (second compound 0.1 µM, first compound 0.00999 µM) was 86.2%. The viability, T/C [3] was 80%, the viability, T/C (second compound 0.1 µM, first compound 0.0999 µM) was 85.1% and the viability, T/C [4] was 72%. The viability, T/C (second compound 0.316 µM, first compound 0.000999 µM) was 113%, the viability, T/C (second compound 0.316 µM, first compound 0.00316 µM) was 113% and the viability, T/C (second compound 0.316 µM, first compound 0.00999 µM) was 71.4%. The viability, T/C [5] was 89.1%, the viability, T/C (second compound 0.316 µM, first compound 0.0999 µM) was 91.5% and the viability, T/C [6] was 78%. For the same molecule, the viability, T/C (second compound 1 µM, first compound 0.000999 µM) was 105%, the viability, T/C (second compound 1 µM, first compound 0.00316 µM) was 115% and the viability, T/C (second compound 1 µM, first compound 0.00999 µM) was 91.6%. The viability, T/C [7] was 86.5%, the viability, T/C (second compound 1 µM, first compound 0.0999 µM) was 103% and the viability, T/C [8] was 86.4%. It also gave a viability, T/C (second compound 3.16 µM, first compound 0.000999 µM) of 117%, a viability, T/C (second compound 3.16 µM, first compound 0.00316 µM) of 112% and a viability, T/C (second compound 3.16 µM, first compound 0.00999 µM) of 76.1%. The viability, T/C [9] was 85%, the viability, T/C (second compound 3.16 µM, first compound 0.0999 µM) was 84.5% and the viability, T/C [10] was 94.5%. It also gave a viability, T/C (second compound 10 µM, first compound 0.000999 µM) of 103%, a viability, T/C (second compound 10 µM, first compound 0.00316 µM) of 129% and a viability, T/C (second compound 10 µM, first compound 0.00999 µM) of 92%. For the same molecule, the viability, T/C [11] was 83.7%, the viability, T/C (second compound 10 µM, first compound 0.0999 µM) was 84.8% and the viability, T/C [12] was 100%.

For `COc1ccc([C@@H](O)c2cc(-c3ncnc4cc(N5CCOCC5)ccc34)c(F)cc2Cl)nn1` + Cc1[nH]c2ccc(F)cc2c1-c1nc2c3cccnc3c3ncccc3c2[nH]1, the pIC50 (second compound 0.0316 µM) was under 5.00, the pIC50 (second compound 0.1 µM) was under 5.00 and the pIC50 (second compound 0.316 µM) was 5.07. The pIC50 (second compound 1 µM) was 5.04, the pIC50 (second compound 3.16 µM) was 5.05 and the pIC50 (second compound 10 µM) was 5.15. For the same molecule, the viability, T/C [1] was 97.4%, the viability, T/C (second compound 0.0316 µM, first compound 0.1 µM) was 113% and the viability, T/C [2] was 108%. For the same molecule, the viability, T/C (second compound 0.0316 µM, first compound 1 µM) was 84.6%, the viability, T/C (second compound 0.0316 µM, first compound 3.16 µM) was 83.8% and the viability, T/C (second compound 0.0316 µM, first compound 10 µM) was 57.7%. For the same molecule, the viability, T/C [3] was 92%, the viability, T/C (second compound 0.1 µM, first compound 0.1 µM) was 97.3% and the viability, T/C [4] was 109%. For the same molecule, the viability, T/C (second compound 0.1 µM, first compound 1 µM) was 86.9%, the viability, T/C (second compound 0.1 µM, first compound 3.16 µM) was 77.6% and the viability, T/C (second compound 0.1 µM, first compound 10 µM) was 51%. For the same molecule, the viability, T/C [5] was 82.2%, the viability, T/C (second compound 0.316 µM, first compound 0.1 µM) was 108% and the viability, T/C [6] was 107%. The viability, T/C (second compound 0.316 µM, first compound 1 µM) was 83.4%, the viability, T/C (second compound 0.316 µM, first compound 3.16 µM) was 111% and the viability, T/C (second compound 0.316 µM, first compound 10 µM) was 42.1%. The viability, T/C [7] was 85.3%, the viability, T/C (second compound 1 µM, first compound 0.1 µM) was 92.5% and the viability, T/C [8] was 106%. For the same molecule, the viability, T/C (second compound 1 µM, first compound 1 µM) was 98.9%, the viability, T/C (second compound 1 µM, first compound 3.16 µM) was 75.9% and the viability, T/C (second compound 1 µM, first compound 10 µM) was 47.6%. For the same molecule, the viability, T/C [9] was 96.3%, the viability, T/C (second compound 3.16 µM, first compound 0.1 µM) was 120% and the viability, T/C [10] was 87.8%. For the same molecule, the viability, T/C (second compound 3.16 µM, first compound 1 µM) was 95%, the viability, T/C (second compound 3.16 µM, first compound 3.16 µM) was 97.1% and the viability, T/C (second compound 3.16 µM, first compound 10 µM) was 44.6%. The viability, T/C [11] was 121%, the viability, T/C (second compound 10 µM, first compound 0.1 µM) was 93.3% and the viability, T/C [12] was 100%. For the same molecule, the viability, T/C (second compound 10 µM, first compound 1 µM) was 93.9%, the viability, T/C (second compound 10 µM, first compound 3.16 µM) was 82.8% and the viability, T/C (second compound 10 µM, first compound 10 µM) was 36.9%.
